The nature of assay [1]: Counterscreen for […] of the human trace amine associated receptor 1 (TAAR1): Fluorescence-based cell-based high throughput dose response assay to identify nonselective Ga16 agonists. It counts as functional. (In general: The purpose of a counterscreen is to sort out artefacts and off-target activity.)
In assay [2] the target is T1, Trace amine-associated receptor 1 (Homo sapiens, UniProt Q96RJ0).
T1 sequence (Q96RJ0 whole entry): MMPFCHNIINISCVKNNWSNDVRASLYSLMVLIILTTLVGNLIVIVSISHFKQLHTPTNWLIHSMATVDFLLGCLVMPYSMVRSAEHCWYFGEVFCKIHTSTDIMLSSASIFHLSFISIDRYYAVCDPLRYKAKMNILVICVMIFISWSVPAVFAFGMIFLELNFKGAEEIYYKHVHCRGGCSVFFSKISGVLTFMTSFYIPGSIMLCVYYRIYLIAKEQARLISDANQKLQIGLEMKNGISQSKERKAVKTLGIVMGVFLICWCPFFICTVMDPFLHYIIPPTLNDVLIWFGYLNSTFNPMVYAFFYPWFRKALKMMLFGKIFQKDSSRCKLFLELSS
The experiment in a line: Fluorescence-based cell-based high throughput dose response assay to identify antagonists of the human trace amine associated receptor 1 (TAAR1). It counts as functional.

The nature of assay [3]: Counterscreen for antagonists of the human trace amine associated receptor 1 (hTAAR1): Fluorescence-based cell-based high throughput dose response assay to identify nonselective Ga16 antagonists. It counts as functional.
The target of assay [4] is T1, Trace amine-associated receptor 1. The experiment in a line: Counterscreen for antagonists of the human trace amine associated receptor 1 (hTAAR1): Fluorescence-based cell-based high throughput dose response assay to identify TAAR1 Agonists. It counts as functional.
Assay [5] in a line: Inhibition of T. cruzi Tulahuen strain amastigotes in L-6 muscle cells Measured in Cell-Based and Microorganism Combination System Using Plate Reader - 2138-03_Inhibitor_Dose_CherryPick_Activity. It counts as functional. The conditions noted are these: Rattus norvegicus, L6.
The nature of assay [6]: cytotoxicity in L-6 rat myocytes, dose response, cytotoxicity control, cell-based, plate reader, cherry-pick (AID 651896). It counts as functional.
A short description of assay [7]: Inhibition of Plasmodium falciparum NF54 Measured in Cell-Based System Using Plate Reader - 2138-11_Inhibitor_Dose_CherryPick_Activity. It counts as functional.
Assay [8] in a line: L. donovani amastigote growth inhibition, dose response, axenic amastigotes, plate reader, cherry pick (AID 651891). It counts as functional, cell-based. The conditions noted are these: Leishmania donovani.
A short description of assay [9]: intracellular Trypanosoma cruzi inhibitors in host cells – cell-based, plate reader, cherry-pick samples, set 3, dose response (AID 651818).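 Note: compounds incubated with infected cells for about four days.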 It counts as functional.
A short description of assay [10]: T. b. rhodesiense proliferation inhibition, dose response, STIB900 strain, plate reader, cherry pick (AID 651893). The settings on record: Trypanosoma brucei. It counts as functional, cell-based.
For assay [11], the target named is Galanin receptor type 3 (Homo sapiens, UniProt O60755). The assay is described as follows: Fluorescence-based cell-based primary high throughput dose response assay to identify antagonists of the Galanin Receptor 3 (GalR3). The format is functional.
Assay [12] is described as follows: cells. It counts as functional, cell-based. The conditions noted are these: HEK-CNG.
Assay [13] deals with Paired box protein Pax-8 (Homo sapiens, UniProt Q06710). The assay is described as follows: inhibitors of PAX8-driven TPO luciferase reporter, dose response, RMG-I cells, cherry-pick (AID 687027).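 Note: luciferase reporter driven by Pax8 target thyroperoxidase promoter measured by SteadyGlo luminescence.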 The format is functional, cell-based. For orientation: A reporter such as luciferase makes a cellular process visible.
Assay [14] in a line: A2780 ovarian cancer cell cytotoxicity, dose response, cytotoxicity control, plate reader, dry powder samples (AID 743046). The format is functional, cell-based.
Assay [15] can be described thus: inhibitors of CMV-promoter luciferase reporter, dose response, counter-screen for Pax8 inhibitor project, cell-based, HEK293, luminescence, dry powder (AID 743020). The format is functional.
The nature of assay [16]: NIH:OVCAR-3 ovarian cancer cell cytotoxicity, dose response, PAX8 inhibitor project, plate reader, dry powder samples (AID 743044). The format is functional, cell-based.
A short description of assay [17]: IGROV1 ovarian cancer cell cytotoxicity, dose response, PAX8 inhibitor project, plate reader, dry powder samples (AID 743043). The format is functional, cell-based. The conditions noted are these: IGROV-1.
Assay [18] is described as follows: non-specific cell cytotoxicity, dose response, cytotoxicity control for PAX8 inhibitor project, plate reader, dry powder samples (AID 743021). It counts as functional, cell-based.
A short description of assay [19]: cytotoxicity in OVCAR8 ovarian cancer cells, dose response, PAX8 project, cell-based, plate reader, dry powder samples (AID 743197). The format is functional. The settings on record: OVCAR-8.
A short description of assay [20]: inhibitors of PGC1a acetylation in cells, dose response, cell-based, cherry-picked samples (AID 720514).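 Note: potency may reflect raised or lowered acetylation signal.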 It counts as functional.
Assay [21] is described as follows: Luminescence-based cell-based high throughput dose response assay to identify activators of the DAF-12 from the parasite S. stercoralis (ssDAF-12). The format is functional.
The target in assay [22] is T2, Oxysterols receptor LXR-beta (Homo sapiens, UniProt P55055).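 Note: Cell-based luminescence dose-response assay of agonist activity at LXR, run as a confirmatory counterscreen to a daf-12 agonist screen; HEK293 cells with Gal4-LXR fusion and GAL4-driven luciferase reporter; agonist potency from rising luciferase signal of a Gal4-LXR reporter.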
T2 sequence (P55055 whole entry): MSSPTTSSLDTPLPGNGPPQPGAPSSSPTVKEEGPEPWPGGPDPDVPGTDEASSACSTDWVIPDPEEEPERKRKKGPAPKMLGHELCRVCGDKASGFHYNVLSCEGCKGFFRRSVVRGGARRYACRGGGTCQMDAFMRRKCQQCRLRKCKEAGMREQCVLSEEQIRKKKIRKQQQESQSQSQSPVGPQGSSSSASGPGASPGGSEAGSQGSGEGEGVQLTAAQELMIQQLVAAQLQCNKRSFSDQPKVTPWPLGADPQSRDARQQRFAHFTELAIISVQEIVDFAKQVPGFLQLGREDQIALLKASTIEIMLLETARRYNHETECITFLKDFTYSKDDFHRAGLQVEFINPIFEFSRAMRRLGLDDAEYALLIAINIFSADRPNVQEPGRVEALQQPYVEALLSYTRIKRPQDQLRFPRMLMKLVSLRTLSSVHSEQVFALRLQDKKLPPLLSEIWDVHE
The format is functional, cell-based.

A short description of assay [23]: cells.
The nature of assay [24]: Luminescence Cell-Based Dose Retest to Confirm Inhibitors of Cancer Stem Cells. [Related pubchem assays (depositor defined):AID2717, AID2721]. It counts as functional. The conditions noted are these: Homo sapiens.
Assay [25] has as its system INS1. The experiment in a line: beta cell apoptosis inhibitors, cytokine rescue, dose response, luminescence, retest (AID 449756).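 Note: cell death triggered by IL-1 beta plus TNF-alpha plus IFN-gamma mixture; protective hits raise ATP signal compared with cytokine alone wells.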 The conditions noted are these: Rattus norvegicus. The format is functional, cell-based.
A short description of assay [26]: miR-122 activators in hepatoma reporter cells, dose response, cell-based, Huh7 psiCHECK-miR122, Renilla luciferase, cherry-picked (AID 651956).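 Note: huh7 hepatoma cells stably carrying a psiCHECK-2 miR-122 sensor plasmid; renilla luciferase signal reporting endogenous miR-122 activity after 48 h compound exposure.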 The format is functional.
The nature of assay [27]: HEK293T cell cytotoxicity, dose response, cytotoxicity control for HIV Vif inhibitor project, cherry-picks (AID 652208). It counts as functional, cell-based.
A short description of assay [28]: HEK293T cytotoxicity, dose response, cytotoxicity control for miR-122 modulator project, cell-based, activator set, cherry-pick (AID 720690).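 Note: HEK293T human cells scored for general mammalian cytotoxicity.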 The format is functional.
Assay [29] in a line: HEK293T cell cytotoxicity, dose response, cytotoxicity control, CellTiter-Glo luminescence, dry powder, set 6 (AID 651949). It counts as functional, cell-based. The settings on record: HEK293.

Each structure is given as a SMILES string. Calls of active or inactive are those of the source.

Galanin receptor type 3, sequence (O60755 whole entry): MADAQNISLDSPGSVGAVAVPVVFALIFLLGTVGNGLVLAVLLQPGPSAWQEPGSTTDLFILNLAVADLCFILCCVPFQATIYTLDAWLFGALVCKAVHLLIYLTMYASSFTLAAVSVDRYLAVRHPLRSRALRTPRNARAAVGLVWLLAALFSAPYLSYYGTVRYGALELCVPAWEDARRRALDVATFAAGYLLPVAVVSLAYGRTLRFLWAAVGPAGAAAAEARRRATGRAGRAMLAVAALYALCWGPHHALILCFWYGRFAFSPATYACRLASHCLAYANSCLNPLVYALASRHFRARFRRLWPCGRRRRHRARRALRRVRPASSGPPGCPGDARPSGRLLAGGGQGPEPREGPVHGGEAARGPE
Paired box protein Pax-8, sequence (Q06710 whole entry): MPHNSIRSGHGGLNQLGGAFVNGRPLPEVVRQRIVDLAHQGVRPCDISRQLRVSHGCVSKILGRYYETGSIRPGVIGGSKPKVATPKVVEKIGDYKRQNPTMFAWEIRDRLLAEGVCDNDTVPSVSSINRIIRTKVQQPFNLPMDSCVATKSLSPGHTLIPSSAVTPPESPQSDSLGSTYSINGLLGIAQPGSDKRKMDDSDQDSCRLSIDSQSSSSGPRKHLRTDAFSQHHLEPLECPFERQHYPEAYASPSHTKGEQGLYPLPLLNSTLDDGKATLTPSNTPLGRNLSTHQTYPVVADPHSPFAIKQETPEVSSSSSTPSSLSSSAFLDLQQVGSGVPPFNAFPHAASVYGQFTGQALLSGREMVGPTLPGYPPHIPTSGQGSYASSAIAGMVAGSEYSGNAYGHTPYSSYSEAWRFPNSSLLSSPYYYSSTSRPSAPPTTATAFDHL

As usually defined, the EC50 is the midpoint of the concentration-response curve. By IC50 is commonly meant the concentration that gives 50% inhibition. As for `COc1ccc(-c2cc(C(=O)NCC(C)C)no2)cc1`, the EC50 in [1] and in [4] was > 29.9 µM (inactive) in each case. The IC50 in assay [2] and in assay [3] was > 29.9 µM (inactive) throughout.

What is called AC50 is the concentration giving half of the maximal activity seen. For the compound `COc1ccc(CN(C)C[C@H]2Oc3c(NC(=O)c4ccncc4)cccc3C(=O)N([C@H](C)CO)C[C@@H]2C)cc1`, the IC50 in [5] is 7.39 µM (inactive); in [6], > 100 µM (inactive); in assay [7], 7.39 µM (inactive); in [8], > 100 µM (inactive); in [10], 20.2 µM (inactive). Besides, in assay [9], the half-maximal activity concentration (AC50) was 0.206 µM (active).

Consider `Cc1nn(C)c(Nc2ccc(Br)cc2)c1Br`, for which the IC50 in [11] is 0.155 µM (active). Moreover, in assay [12], the EC50 is > 29.9 µM (inactive).

In the case of `C[C@@H]1CN([C@H](C)CO)C(=O)c2cc(NS(=O)(=O)c3ccccc3)ccc2O[C@@H](C)CCCCO[C@@H]1CN(C)Cc1ccc(C(F)(F)F)cc1`, the AC50 in assay [13] is 5.74 µM (active); in [14], 34.8 µM (active); in assay [15], 65.4 µM (active); in assay [16], 27.4 µM (active); in [17], 35.4 µM (active); in assay [18], 49 µM (active). In addition, the concentration at half-maximal activity (AC50) in assay [19] is 39 µM (active).

Regarding `Cc1cc(-c2ccc(Cl)cc2)n2ncnc2n1`, the AC50 in [20] was 29.8 µM (active).

As for `COc1ccc(Nc2nc(-c3ccccc3)cs2)cc1`, the IC50 in assay [21] was > 67.5 µM (inactive). In addition, the EC50 in assay [22] and in assay [23] was > 67.5 µM (inactive) throughout.

Regarding `COc1ccc(-c2cc(-c3nc4ccccn4c3NCc3ccccc3)ccc2OC)cc1`, the AC50 in [24] is 5.24 µM (active); in assay [25], 1.33 µM (active); in [26] it was 8.74 µM (active); in [27], 1.69 µM (active); in [28], 3.12 µM (active).

On to `c1ccc(CSc2nnc(C3CCCC3)o2)cc1`, for which the AC50 in [29] was > 52 µM (inactive).
